In patent US10287269B2, “Pyrazolyl pyrimidinone compounds as PDE2 inhibitors” (Merck Sharp & Dohme Corp., priority 2015, dated 2019):
Like-named read-outs stand apart in the source and are kept apart here.

Biological target: T1, Rhesus PDE2A3 (Macaca mulatta, UniProt B3VTJ2)
T1 construct: made in house; host or cells: AD293 cells, transient transfection, pcDNA3.3-TOPO; lysate supernatant used as enzyme
T1 sequence (B3VTJ2 1-941): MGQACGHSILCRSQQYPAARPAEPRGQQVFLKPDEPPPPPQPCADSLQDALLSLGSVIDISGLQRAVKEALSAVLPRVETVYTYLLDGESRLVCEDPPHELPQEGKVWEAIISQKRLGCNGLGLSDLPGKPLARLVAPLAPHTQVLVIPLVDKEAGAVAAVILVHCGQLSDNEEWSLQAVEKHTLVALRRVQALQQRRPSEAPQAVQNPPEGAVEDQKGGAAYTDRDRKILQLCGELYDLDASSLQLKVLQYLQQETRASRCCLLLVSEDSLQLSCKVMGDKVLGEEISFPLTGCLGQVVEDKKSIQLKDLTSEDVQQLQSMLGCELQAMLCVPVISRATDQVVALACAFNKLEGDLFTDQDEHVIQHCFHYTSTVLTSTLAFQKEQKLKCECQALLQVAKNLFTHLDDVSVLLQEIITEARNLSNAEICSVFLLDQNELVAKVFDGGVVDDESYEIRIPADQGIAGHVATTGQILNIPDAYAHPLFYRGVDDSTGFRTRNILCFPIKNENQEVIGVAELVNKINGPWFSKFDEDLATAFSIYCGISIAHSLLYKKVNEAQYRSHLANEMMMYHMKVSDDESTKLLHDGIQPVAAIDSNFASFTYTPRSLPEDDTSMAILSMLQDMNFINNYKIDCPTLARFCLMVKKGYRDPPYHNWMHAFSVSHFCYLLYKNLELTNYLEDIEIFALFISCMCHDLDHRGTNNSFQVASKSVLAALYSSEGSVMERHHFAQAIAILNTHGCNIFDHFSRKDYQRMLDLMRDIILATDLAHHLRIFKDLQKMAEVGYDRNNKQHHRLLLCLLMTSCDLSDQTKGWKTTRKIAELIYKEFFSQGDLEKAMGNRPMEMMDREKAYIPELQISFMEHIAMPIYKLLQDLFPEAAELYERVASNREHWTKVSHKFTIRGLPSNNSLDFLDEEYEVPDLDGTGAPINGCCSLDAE
Test: PDE2 fluorescence polarization (IMAP FP) inhibition assay, rhesus enzyme
Assay type: biochemical, rhesus macaque
In short: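 Lysate of AD293 cells transiently expressing rhesus PDE2A3, diluted for ~20% substrate conversion, with 50 nM FAM-cAMP and 1 uM cGMP activator in pH 7.2 Tris/MgCl2 buffer, 60 min at room temperature.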

[1] = Lab A, read-out: Rhesus PDE2 Ki (nM) Lab A
[2] = Lab B, read-out: Rhesus PDE2 Ki (nM) Lab B

| SMILES | Ki [1] | Ki [2] |
| --- | --- | --- |
| Cc1nc(-c2cnn(C(C)c3ccc(C4CC4)cc3F)c2)cc(=O)[nH]1 (single isomer, unassigned) [Example 91, (R)- or (S)-6-(1-(1-(4-cyclopropyl-2-fluorophenyl)ethyl)-1H-pyrazol-4-yl)-2-methylpyrimidin-4(3H)-one] | 60 nM | – |
| Cc1nc(-n2cc(C(c3ccc(C(F)(F)F)cc3)C(C)C)cn2)cc(=O)[nH]1 (centres unmarked) [Example 130] | – | 138 nM |
| Cc1nc(-c2ccn(C(C)c3ccc(C(F)(F)F)cc3)n2)cc(=O)[nH]1 (single isomer, unassigned) [Example 78, (S)- or (R)-2-methyl-6-(1-{(1R)-1-[4-(trifluoromethyl)phenyl]ethyl}-1H-pyrazol-3-yl)pyrimidin-4(3H)-one] | – | 318 nM |
| Cc1nc(-c2ccn(C(C)c3ccc(C(F)(F)F)cc3)n2)cc(=O)[nH]1 (single isomer, unassigned) [Example 77, (R)- or (S)-2-methyl-6-(1-(1-(4-(trifluoromethyl)phenyl)ethyl)-1H-pyrazol-3-yl)pyrimidin-4(3H)-one] | – | 542 nM |
| CC(C)c1nc(-c2cnn(C(C)c3ccc(C(F)(F)F)cc3F)c2)cc(=O)[nH]1 (centres unmarked) [Example 9, 6-(1-(1-(2-Fluoro-4-(trifluoromethyl)phenyl)ethyl)-1H-pyrazol-4-yl)-2-isopropylpyrimidin-4(3H)-one] | 58.8 nM | 30.7 nM |
| Cc1nc(-n2cc(C(C)c3ccc(C4(C)CC4)cc3)cn2)cc(=O)[nH]1 (centres unmarked) [Example 40, 2-methyl-6-(4-(1-(4-(1-methylcyclopropyl)phenyl)ethyl)-1H-pyrazol-1-yl)pyrimidin-4(3H)-one] | – | 211 nM |
| Cc1nc(-c2cnn(C(C)c3ccc(C(F)(F)F)cc3F)c2)cc(=O)[nH]1 (single isomer, unassigned) [Example 135, (R)- or (S)-6-(1-(1-(2-fluoro-4-(trifluoromethyl)phenyl)ethyl)-1H-pyrazol-4-yl)-2-methylpyrimidin-4(3H)-one] | – | 109 nM |
| Cc1nc(-c2cnn(C(C)c3ccc(C4CC4)cc3C)c2)cc(=O)[nH]1 (single isomer, unassigned) [Example 94, (S)- or (R)-6-(1-(1-(4-cyclopropyl-2-methylphenyl)ethyl)-1H-pyrazol-4-yl)-2-methylpyrimidin-4(3H)-one] | 40.8 nM | – |

Other lines, results leading:

| Ki [1] | Ki [2] | SMILES |
| --- | --- | --- |
| 21.3 nM | 10.9 nM | COc1cc(Cc2nc(-c3cnn(C(C)c4ccc(C(F)(F)F)cc4F)c3)cc(=O)[nH]2)ccc1F (single isomer, unassigned) [Example 143, (S)- or (R)-2-(4-fluoro-3-methoxybenzyl)-6-(1-(1-(2-fluoro-4-(trifluoromethyl)phenyl)ethyl)-1H-pyrazol-4-yl)pyrimidin-4(3H)-one] |
| 3.6 nM | – | COc1ccc(Cc2nc(-c3cnn(C(C)c4ccc(C(F)(F)F)cc4F)c3)cc(=O)[nH]2)cc1F (single isomer, unassigned) [Example 147, (S)- or (R)-6-(1-(1-(2-fluoro-4-(trifluoromethyl)phenyl)ethyl)-1H-pyrazol-4-yl)-2-(3-fluoro-4-methoxybenzyl)pyrimidin-4(3H)-one] |
| – | 285 nM | Cc1nc(-n2ccc([C@H](C)c3ccc(C(F)(F)F)cc3)n2)cc(=O)[nH]1 (single isomer, unassigned) [Example 5] |
| – | 29.3 nM | Cc1nc(-c2cc([C@H](C)c3ccc(C(F)(F)F)cc3)[nH]n2)cc(=O)[nH]1 (single isomer, unassigned) [Example 23] |
| – | 64.5 nM | Cc1nc(-n2cc(C(C)c3ccc(C(F)(F)F)cc3F)cn2)cc(=O)[nH]1 (single isomer, unassigned) [Example 53, (S)- or (R)-6-(4-(1-(2-fluoro-4-(trifluoromethyl)phenyl)ethyl)-1H-pyrazol-1-yl)-2-methylpyrimidin-4(3H)-one] |
| 18.3 nM | 11.1 nM | Cc1nc(-c2cnn(C(C)c3ccc(C(F)(F)F)cc3F)c2)cc(=O)[nH]1 (single isomer, unassigned) [Example 136, (S)- or (R)-6-(1-(1-(2-fluoro-4-(trifluoromethyl)phenyl)ethyl)-1H-pyrazol-4-yl)-2-methylpyrimidin-4(3H)-one] |
| – | 99.9 nM | Cc1nc(-n2cc(C(C)c3ccc(C4CC4)cc3)cn2)cc(=O)[nH]1 (centres unmarked) [Example 39, 6-(4-(1-(4-cyclopropylphenyl)ethyl)-1H-pyrazol-1-yl)-2-methylpyrimidin-4(3H)-one] |
| – | 41.9 nM | Cc1nc(-n2cc([C@]3(c4ccc(C(F)(F)F)cc4)CCCO3)cn2)cc(=O)[nH]1 (single isomer, unassigned) [Example 22] |
| 38.3 nM | 17.3 nM | CC(c1ccc(C(F)(F)F)cc1F)n1cc(-c2cc(=O)[nH]c(Cc3ccccc3)n2)cn1 (centres unmarked) [Example 35, 2-benzyl-6-(1-(1-(2-fluoro-4-(trifluoromethyl)phenyl)ethyl)-1H-pyrazol-4-yl)pyrimidin-4(3H)-one] |
| – | 154 nM | Cc1nc(-c2cc([C@H](C)c3ccc(C(F)(F)F)cc3)[nH]n2)cc(=O)[nH]1 (single isomer, unassigned) [Example 24] |
| 25 nM | – | CC(c1ccc(C(F)(F)F)cc1F)n1cc(-c2cc(=O)[nH]c(C3CC3)n2)cn1 (centres unmarked) [Example 10] |
